Laboratory results taken from patent US10821195B2, “Compositions for therapeutics, targeted PET imaging and methods of their use” (Memorial Sloan Kettering Cancer Center, priority 2015, dated 2020).

Tests used:
[1] = Hydroxyapatite stability (competition); format: physicochemical; settings: after 6 d, 37° C.
Experimental: Additionally, each day the mixtures were vortexed to ensure proper mixing. At the respective time point, the aliquot was vortexed, centrifuged, vortexed, filtered (0.45 μm, 13 mm, nylon syringe filter, Fisher Scientific, Waltham, Mass.), and the filter washed with 1 mL of 50:50 EtOH in water. The filter (bound to hydroxyapatite), reaction tube, and filtrate (bound to the chelator) were counted separately on a gamma counter to determine the amount of activity in each.

Log D7.4 in octanol/PBS = format: physicochemical
[2] = Metal ion challenge of ^177Lu-HOPO and ^177Lu-DOTA; format: physicochemical; settings: 10-fold excess Cu^2+, Fe^3+, Ga^3+, Gd^3+, 6 d
Experimental: The incubations were performed at 37° C. in a thermomixer over the course of 6 d and analyzed by radioTLC using C-18 TLC plates developed with 50 mM DTPA at 1, 3, and 6 d.

[3] = Biodistribution of ^177Lu-HOPO and ^177Lu-DOTA in healthy female nude mice; format: in vivo
Experimental: Therefore, healthy female nude mice were injected with each of the complexes in order to determine their relative in vivo stabilities. The results are tabulated in Table 3 and are shown as graphs in FIG. 21A, FIG. 21B and FIG. 22.
Aliquots of the injectate (10 μL) were weighed and counted as standards with the tissues. The injection syringes were weighed pre- and post-injection to determine the weight of injectate and the activity according to the dose calibrator was measured before and after injection. All of the tissues were weighed and counted with the standards. The standards were used to obtain the counts/g injectate, the weights of the injectate were used to determine the total number of counts for the injected dose (ID), the counts of the tissue were used to get the % ID, and the weights of the tissues were used to obtain the % ID/g. Standard averaging and standard deviation calculations were applied.

O=C([O-])CN1CCN(CC(=O)[O-])CCN(CC(=O)[O-])CCN(CC(=O)[O-])CC1.[177Lu+3].[H+] [^177Lu-DOTA]
complex intact in hydroxyapatite competition [1]: > 98%
Log D7.4 (Log D7.4 in octanol/PBS): −4.1±0.4
stability to transmetallation [2]: stable to transmetallation with all of the metals investigated in this study
Blood/Bone ratio ([3]; 0.5 h): 5 ± 2
Kidney/Bone ratio ([3]; 0.5 h): 13 ± 7
L. Intestine/Bone ratio ([3]; 0.5 h): 0.6 ± 0.3
Liver/Bone ratio ([3]; 0.5 h): 2.2 ± 0.7
Muscle/Bone ratio ([3]; 0.5 h): 0.9 ± 0.5
S. Intestine/Bone ratio ([3]; 0.5 h): 1.6 ± 0.6
biodistribution Bladder ([3]; 0.5 h): 0.691 ± 0.116 % ID/g
biodistribution Blood ([3]; 0.5 h): 0.407 ± 0.179 % ID/g
biodistribution Bone ([3]; 0.5 h): 0.090 ± 0.026 % ID/g
biodistribution Heart ([3]; 0.5 h): 0.142 ± 0.069 % ID/g
biodistribution Kidneys ([3]; 0.5 h): 1.121 ± 0.490 % ID/g
biodistribution L. Intestine ([3]; 0.5 h): 0.056 ± 0.025 % ID/g
biodistribution Liver ([3]; 0.5 h): 0.199 ± 0.033 % ID/g
biodistribution Lungs ([3]; 0.5 h): 0.298 ± 0.131 % ID/g
biodistribution Muscle ([3]; 0.5 h): 0.085 ± 0.037 % ID/g
biodistribution Pancreas ([3]; 0.5 h): 0.080 ± 0.037 % ID/g
biodistribution S. Intestine ([3]; 0.5 h): 0.142 ± 0.038 % ID/g
biodistribution Spleen ([3]; 0.5 h): 0.103 ± 0.019 % ID/g
biodistribution Stomach ([3]; 0.5 h): 0.120 ± 0.035 % ID/g
Blood/Bone ratio ([3]; 1 h): 0.6 ± 0.4
Kidney/Bone ratio ([3]; 1 h): 30 ± 30
L. Intestine/Bone ratio ([3]; 1 h): 0.26 ± 0.19
Liver/Bone ratio ([3]; 1 h): 2.3 ± 1.7
Muscle/Bone ratio ([3]; 1 h): 0.4 ± 0.4
S. Intestine/Bone ratio ([3]; 1 h): 1.5 ± 1.1
biodistribution Bladder ([3]; 1 h): 0.2962 ± 0.1869 % ID/g
biodistribution Blood ([3]; 1 h): 0.0287 ± 0.0038 % ID/g
biodistribution Bone ([3]; 1 h): 0.0491 ± 0.0349 % ID/g
biodistribution Heart ([3]; 1 h): 0.0142 ± 0.0016 % ID/g
biodistribution Kidneys ([3]; 1 h): 1.4402 ± 1.2901 % ID/g
biodistribution L. Intestine ([3]; 1 h): 0.0129 ± 0.0015 % ID/g
biodistribution Liver ([3]; 1 h): 0.1121 ± 0.0174 % ID/g
biodistribution Lungs ([3]; 1 h): 0.0444 ± 0.0175 % ID/g
biodistribution Muscle ([3]; 1 h): 0.0219 ± 0.0154 % ID/g
biodistribution Pancreas ([3]; 1 h): 0.0143 ± 0.0050 % ID/g
biodistribution S. Intestine ([3]; 1 h): 0.0722 ± 0.0209 % ID/g
biodistribution Spleen ([3]; 1 h): 0.0410 ± 0.0100 % ID/g
biodistribution Stomach ([3]; 1 h): 0.0230 ± 0.0174 % ID/g
Blood/Bone ratio ([3]; 4 h): 0.18 ± 0.06
Kidney/Bone ratio ([3]; 4 h): 40 ± 30
L. Intestine/Bone ratio ([3]; 4 h): 6 ± 7
Liver/Bone ratio ([3]; 4 h): 10 ± 4
Muscle/Bone ratio ([3]; 4 h): 0.74 ± 0.15
S. Intestine/Bone ratio ([3]; 4 h): 3 ± 3
biodistribution Bladder ([3]; 4 h): 0.1088 ± 0.0148 % ID/g
biodistribution Blood ([3]; 4 h): 0.0011 ± 0.0003 % ID/g
biodistribution Bone ([3]; 4 h): 0.0060 ± 0.0007 % ID/g
biodistribution Heart ([3]; 4 h): 0.0052 ± 0.0016 % ID/g
biodistribution Kidneys ([3]; 4 h): 0.2398 ± 0.1571 % ID/g
biodistribution L. Intestine ([3]; 4 h): 0.0361 ± 0.0403 % ID/g
biodistribution Liver ([3]; 4 h): 0.0614 ± 0.0205 % ID/g
biodistribution Lungs ([3]; 4 h): 0.0080 ± 0.0044 % ID/g
biodistribution Muscle ([3]; 4 h): 0.0044 ± 0.0007 % ID/g
biodistribution Pancreas ([3]; 4 h): 0.0068 ± 0.0038 % ID/g
biodistribution S. Intestine ([3]; 4 h): 0.0209 ± 0.0180 % ID/g
biodistribution Spleen ([3]; 4 h): 0.0249 ± 0.0009 % ID/g
biodistribution Stomach ([3]; 4 h): 0.0038 ± 0.0026 % ID/g
Blood/Bone ratio ([3]; 1 d): 0.04 ± 0.02
Kidney/Bone ratio ([3]; 1 d): 46 ± 12
L. Intestine/Bone ratio ([3]; 1 d): 10 ± 7
Liver/Bone ratio ([3]; 1 d): 7.6 ± 1.6
Muscle/Bone ratio ([3]; 1 d): 0.6 ± 0.3
S. Intestine/Bone ratio ([3]; 1 d): 4 ± 3
biodistribution Bladder ([3]; 1 d): 0.1599 ± 0.07394 % ID/g
biodistribution Blood ([3]; 1 d): 0.0002 ± 0.00011 % ID/g
biodistribution Bone ([3]; 1 d): 0.00484 ± 0.00076 % ID/g
biodistribution Heart ([3]; 1 d): 0.0027 ± 0.00067 % ID/g
biodistribution Kidneys ([3]; 1 d): 0.2226 ± 0.04562 % ID/g
biodistribution L. Intestine ([3]; 1 d): 0.05022 ± 0.03098 % ID/g
biodistribution Liver ([3]; 1 d): 0.0369 ± 0.00538 % ID/g
biodistribution Lungs ([3]; 1 d): 0.0041 ± 0.00192 % ID/g
biodistribution Muscle ([3]; 1 d): 0.00281 ± 0.00151 % ID/g
biodistribution Pancreas ([3]; 1 d): 0.00337 ± 0.00062 % ID/g
biodistribution S. Intestine ([3]; 1 d): 0.02037 ± 0.01362 % ID/g
biodistribution Spleen ([3]; 1 d): 0.02143 ± 0.00625 % ID/g
biodistribution Stomach ([3]; 1 d): 0.00294 ± 0.00146 % ID/g
Blood/Bone ratio ([3]; 6 d): 0.007 ± 0.015
Carcass/Bone ratio ([3]; 6 d): 0.60 ± 0.17
Kidney/Bone ratio ([3]; 6 d): 10 ± 4
L. Intestine/Bone ratio ([3]; 6 d): 0.34 ± 0.10
Liver/Bone ratio ([3]; 6 d): 4.2 ± 1.2
Muscle/Bone ratio ([3]; 6 d): 0.16 ± 0.12
S. Intestine/Bone ratio ([3]; 6 d): 0.24 ± 0.07
biodistribution Bladder ([3]; 6 d): 0.1186 ± 0.05899 % ID/g
biodistribution Blood ([3]; 6 d): 0.00003 ± 0.00006 % ID/g
biodistribution Bone ([3]; 6 d): 0.00412 ± 0.00104 % ID/g
biodistribution Carcass ([3]; 6 d): 0.0025 ± 0.0003 % ID/g
biodistribution Heart ([3]; 6 d): 0.00158 ± 0.00062 % ID/g
biodistribution Kidneys ([3]; 6 d): 0.04311 ± 0.01362 % ID/g
biodistribution L. Intestine ([3]; 6 d): 0.0014 ± 0.00017 % ID/g
biodistribution Liver ([3]; 6 d): 0.01724 ± 0.00259 % ID/g
biodistribution Lungs ([3]; 6 d): 0.00142 ± 0.00102 % ID/g
biodistribution Muscle ([3]; 6 d): 0.00067 ± 0.00046 % ID/g
biodistribution Pancreas ([3]; 6 d): 0.0012 ± 0.00048 % ID/g
biodistribution S. Intestine ([3]; 6 d): 0.001 ± 0.00011 % ID/g
biodistribution Spleen ([3]; 6 d): 0.01313 ± 0.00408 % ID/g
biodistribution Stomach ([3]; 6 d): 0.00045 ± 0.00010 % ID/g
biodistribution Bone ([3]; 6 d, listed as Lu-DOTA): 0.004±0.001 % ID/g
residual activity in all tissues and carcass ([3]; 6 d p.i.): 0.092±0.009 % ID
residual activity in carcass ([3]; 6 d p.i.): 0.044±0.004 % ID
clearance pathway ([3]; healthy female nude mice): excreted mostly via the renal-urinary clearance pathway
